Results taken from patent publication US11512097B2, “Heterocyclic compounds as Delta-5 desaturase inhibitors and methods of use” (Amgen Inc., priority 2019, dated 2022).

Experiments:
[1] = target: T1, Delta-5-Desaturase (D5D), membrane preparations of D5D-overexpressing HEK293 6E cells (Homo sapiens, UniProt O60427); assay: In vitro measurement of Delta-5-Desaturase inhibitory activity using DGLA-CoA and Arachidonyl-CoA mass spectrometric assays; assay type: biochemical; settings: D5D membrane 10 μg/mL, one-hour incubation, average of at least two independent runs
T1 construct: expressed in transfected cells; host or cells: HEK293 6E cells (membrane preparation)
Method in brief: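 Substrate mix (0.01 mM DGLA with NADH, ATP, coenzyme A) was incubated 1 h at room temperature with HEK293 6E D5D membranes at 10 μg/mL final, pH 7.5. Negative-mode SPE-MS/MS monitored DGLA-CoA (m/z 526.6) and arachidonyl-CoA (m/z 525.6). Inhibition normalised to DMSO and no-enzyme wells gave IC50s, mean of ≥2 runs.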

Delta-5-Desaturase (D5D) = target: T2, Delta-5-Desaturase (D5D) (Mus musculus, UniProt Q920L1); assay: In vivo measurement of Delta-5-Desaturase inhibitory activity (plasma AA/DGLA ratio in DIO mice); settings: single oral dose 30 mg/kg, relative to vehicle group
T2 construct: tissue Jackson Laboratories strain #3800050; host or cells: whole animal (DIO mice)
T2 sequence (Q920L1 1-447): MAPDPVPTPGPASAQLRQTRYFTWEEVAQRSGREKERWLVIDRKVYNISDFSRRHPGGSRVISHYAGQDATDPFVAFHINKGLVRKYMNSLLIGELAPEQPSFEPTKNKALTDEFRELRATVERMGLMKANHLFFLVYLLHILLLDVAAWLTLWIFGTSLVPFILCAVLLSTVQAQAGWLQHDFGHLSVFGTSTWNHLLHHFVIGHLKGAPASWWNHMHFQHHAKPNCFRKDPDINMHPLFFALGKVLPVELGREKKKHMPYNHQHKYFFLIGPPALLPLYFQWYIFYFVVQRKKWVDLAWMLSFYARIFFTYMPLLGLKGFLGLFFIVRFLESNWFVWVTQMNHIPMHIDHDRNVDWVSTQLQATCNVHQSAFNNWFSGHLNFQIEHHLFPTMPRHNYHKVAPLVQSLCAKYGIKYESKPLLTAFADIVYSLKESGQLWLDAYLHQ
Protocol: In Vivo Measurement of Delta-5-Desaturase Inhibitory Activity
Diet-induced obese (DIO; Jackson Laboratories strain #[…]) mice were used to screen for pharmacodynamic (PD) activity of test compounds. Generally, 14 to 24 week old DIO mice, were administered test compounds formulated in the vehicle of 2% hydroxypropyl methylcellulose (HPMC) and 1% Tween80. Animals were dosed on body weight by oral gavage with a single dose (30 mg/kg) for PD studies. Necropsy included plasma collection for PUFA analysis. 10 μl of plasma or standards diluted in surrogate matrix (65 g/l bovine serum albumin in Dulbecco's phosphate-buffered saline) were mixed with 10 μl of an internal standard (100 μM alpha-linolenic acid-d14 (ALA-d14, Cayman Chemical)) in a 96 well plate. 100 μl of 2N NAOH was added to the mixture for subsequent saponification at 65° C. for 1 hour. The mixture was then acidified with 50 μl of formic acid followed by two consecutive hexane extractions. Hexane (500 μl) was added and the mixture thoroughly mixed by vortexing, followed by centrifugation at 4,000 rpm for 15 min. The hexane phase was transferred to a new 1 ml 96 well plate and the remaining aqueous layer was extracted with hexane. The organic extracts were combined and the solvent was removed by placing the plate under nitrogen gas at 55° C. 250 μl of 90% methanol was added to the plate followed by vortexing for 2 minutes. 200 μl of the samples were transferred to a new 96 well polypropylene plate. The samples were analyzed on a LC-MS/MS for the following PUFAs: arachidonic acid (AA), dihomo-gamma-linolenic acid (DGLA), with ALA-d14 as the internal standard. Description of the LC-MS/MS method: 5 μl of sample was injected onto a Poroshell 120 EC-C18 3.0×50 mm, 1.9 μm id column. […] The PUFA peak areas were quantified by using the SCIEX Analyst software. […] The relative decrease of the AA/DGLA ratio of the test compound administered group relative to the vehicle administered group was calculated and used as an index for the degree of D5D inhibition. […]

[2] = system: Diet-Induced Obese (DIO) mice; assay: Assessment of D5D inhibitor in Diet-Induced Obese (DIO) mice; assay type: in vivo, Male C57BL/6J DIO mice; settings: for Fat mass / Lean mass: day 22, EchoMRI; for Blood glucose: day 25, 4 hour fasted; for AA / Cholesterol / DGLA / Insulin / LDL cholesterol / Triglycerides: day 25, 4 hour fasted plasma; for Body weight / Liver weights / epididymal WAT / inguinal WAT: day 27
Source text: Assessment of D5D Inhibitor in Diet-Induced Obese (DIO) Mice
Male C57BL/6J DIO mice (Jackson Laboratories, Stock No.: 380050) were fed high-fat diet (Research Diets, Inc., D12492) for 12 weeks. All animals were given free access to water and chow. Animals were acclimated to per os dosing for 3 days prior to the start of the experiment. Animals were randomized on body weight, fat mass, lean mass, and blood glucose concentrations in to groups of 8 to 10 animals per group. Animals were twice daily dosed per os with either: vehicle (2% hydroxypropyl methylcellulose and 1% tween 80 in water), Example 2 at 10 mg/kg, or 30 mg/kg (formulated in 2% hydroxypropyl methylcellulose and 1% tween 80 in water), or Example 45 at 3 mg/kg, or 10 mg/kg (formulated in 2% hydroxypropyl methylcellulose and 1% tween 80 in water). Three-day average (Example 2) or daily average (Example 45) food consumption was measured at the indicated times as shown in Table 17 and Table 18. Body composition (EchoMRI) was determined on day 78 for Example 2 and day 22 for Example 45. For Example 2, a non-fasted blood collection was performed on day 81; blood glucose was immediately measured, and plasma samples created from the remaining blood and used to measure DGLA and AA concentrations. On day 84, a 4-hour fasted blood collection was performed, and plasma samples were created from the blood and used to measure cholesterol, triglycerides, low-density lipoprotein (LDL) cholesterol, insulin, and adipokine (adiponectin, leptin, and resistin) levels. For Example 45, 4 hour fasted blood samples were collected on day 25 and blood glucose was measured immediately and the plasma samples created from the remaining blood were used to measure cholesterol, triglycerides, LDL cholesterol, insulin, DGLA and AA concentration. At the end of the studies, liver, epididymal white adipose tissue, inguinal white adipose tissue, mesenteric (only Example 2) white adipose tissue weights were recorded. Data was analyzed using GraphPad Prism v 7.04.
The D5D inhibitor dose-dependently led to weight loss over the course of the experiment (Table 17 and Table 18) compared to vehicle controls. Consistently fat mass was reduced, along with lower inguinal, epididymal and mesenteric white adipose tissue (WAT) weights at necropsy. Blood glucose and plasma insulin levels were both reduced by the D5D inhibitor, along with reductions in plasma cholesterol and triglycerides. Evidence of target engagement was established by observing increases in plasma DGLA and decreases in plasma AA.

[3] = Example 45 3 mg/kg twice daily per os
[4] = Example 45 10 mg/kg twice daily per os

T1 sequence (O60427 whole entry, species assumed): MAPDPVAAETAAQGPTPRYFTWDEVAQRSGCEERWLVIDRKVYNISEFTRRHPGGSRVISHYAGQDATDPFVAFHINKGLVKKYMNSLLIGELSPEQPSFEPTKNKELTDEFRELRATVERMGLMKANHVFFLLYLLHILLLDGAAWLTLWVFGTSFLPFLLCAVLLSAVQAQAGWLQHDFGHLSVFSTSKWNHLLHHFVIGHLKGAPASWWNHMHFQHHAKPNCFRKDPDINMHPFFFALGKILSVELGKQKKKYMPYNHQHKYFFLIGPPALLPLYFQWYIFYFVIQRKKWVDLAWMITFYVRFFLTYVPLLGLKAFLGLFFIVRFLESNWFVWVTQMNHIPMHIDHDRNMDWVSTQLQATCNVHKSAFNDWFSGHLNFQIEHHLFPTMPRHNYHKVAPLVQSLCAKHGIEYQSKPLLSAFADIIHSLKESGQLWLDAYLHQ

**Q.** Which results are given for `Cc1cn2c(=O)c(-c3cnn(CC(F)(F)C(F)(F)F)c3)c(C(F)(F)F)nc2n1C` [Example 52, 1,2-dimethyl-6-[1-(2,2,3,3,3-pentafluoropropyl)-1H-pyrazol-4-yl]-7-(trifluoromethyl)-1H,5H-imidazo[1,2-a]pyrimidin-5-one]?
**A.** IC50 [1]: 0.0475 µM; Average % D5D Inhibition expressed as Plasma Endogenous AA/DGLA Ratio (Delta-5-Desaturase (D5D)): 74%

**Q.** For `O=c1c(-c2cnn(CC(F)(F)C(F)(F)F)c2)c(C(F)(F)F)nc2sc(CO)nn12` [Example 45, 2-(hydroxymethyl)-6-[1-(2,2,3,3,3-pentafluoropropyl)-1H-pyrazol-4-yl]-7-(trifluoromethyl)-5H-[1,3,4]thiadiazolo[3,2-a]pyrimidin-5-one], which IC50 [1] is on record?
**A.** Its IC50 is 0.0211 µM.

**Q.** What about the Food consumption ([2]; Example 45 3 mg/kg twice daily per os, day 0, daily average) of the same compound?
**A.** Its Food consumption is 2.5 ± 0.3 g/day.

**Q.** And the Food consumption ([2]; Example 45 3 mg/kg twice daily per os, day 7, daily average)?
**A.** The Food consumption was 3.0 ± 0.3 g/day.

**Q.** What about the Food consumption ([2]; Example 45 3 mg/kg twice daily per os, day 14, daily average) of the same compound?
**A.** The Food consumption was 2.7 ± 0.3 g/day.

**Q.** What about the Food consumption ([2]; Example 45 3 mg/kg twice daily per os, day 21, daily average) of the same compound?
**A.** Its Food consumption is 2.7 ± 0.2 g/day.

**Q.** And the Fat mass [2, 3]?
**A.** The Fat mass was 19.7 ± 2.2 g.

**Q.** What about the Lean mass [2, 3] of the same compound?
**A.** The Lean mass was 27.4 ± 1.5 g.

**Q.** And the Blood glucose [2, 3]?
**A.** The Blood glucose was 176.1 ± 9.4 mg/dL.

**Q.** What about the AA [2, 3] of the same compound?
**A.** Its AA is 88.6 ± 18.9 µg/mL.

**Q.** And the Cholesterol [2, 3]?
**A.** The Cholesterol was 160.4 ± 43.7 mg/dL.

**Q.** What about the DGLA [2, 3] of the same compound?
**A.** Its DGLA is 286.9 ± 47.7 µg/mL.

**Q.** What about the Insulin [2, 3] of the same compound?
**A.** The Insulin was 7.2 ± 1.8 ng/mL.

**Q.** What about the LDL cholesterol [2, 3] of the same compound?
**A.** The LDL cholesterol was 130.6 ± 25.1 mg/dL.

**Q.** What about the Triglycerides [2, 3] of the same compound?
**A.** The Triglycerides was 32.6 ± 5.2 mg/dL.

**Q.** What about the Body weight [2, 3] of the same compound?
**A.** The Body weight was 47.8 ± 2.8 g.

**Q.** And the Liver weights [2, 3]?
**A.** Its Liver weights is 2.6 ± 0.4 g.

**Q.** What about the “epididymal WAT” value [2, 3] of the same compound?
**A.** Its value is 1.8 ± 0.3 g.

**Q.** What about the “inguinal WAT” value [2, 3] of the same compound?
**A.** The value was 2.2 ± 0.5 g.

**Q.** And the Food consumption ([2]; Example 45 3 mg/kg twice daily per os, day 27, daily average)?
**A.** Its Food consumption is 2.5 ± 0.2 g/day.

**Q.** And the Food consumption ([2]; Example 45 10 mg/kg twice daily per os, day 0, daily average)?
**A.** The Food consumption was 2.6 ± 0.3 g/day.

**Q.** What about the Food consumption ([2]; Example 45 10 mg/kg twice daily per os, day 7, daily average) of the same compound?
**A.** The Food consumption was 2.6 ± 0.3 g/day.

**Q.** And the Food consumption ([2]; Example 45 10 mg/kg twice daily per os, day 14, daily average)?
**A.** The Food consumption was 2.4 ± 0.2 g/day.

**Q.** What about the Food consumption ([2]; Example 45 10 mg/kg twice daily per os, day 21, daily average) of the same compound?
**A.** The Food consumption was 2.5 ± 0.2 g/day.

**Q.** What about the Fat mass [2, 4] of the same compound?
**A.** The Fat mass was 16.9 ± 2.3 g.

**Q.** What about the Lean mass [2, 4] of the same compound?
**A.** Its Lean mass is 26.7 ± 1.1 g.

**Q.** And the Blood glucose [2, 4]?
**A.** The Blood glucose was 156.1 mg/dL.

**Q.** What about the AA [2, 4] of the same compound?
**A.** The AA was 38.2 ± 3.6 µg/mL.

**Q.** What about the Cholesterol [2, 4] of the same compound?
**A.** The Cholesterol was 162.8 mg/dL.

**Q.** What about the DGLA [2, 4] of the same compound?
**A.** Its DGLA is 212.6 µg/mL.

**Q.** What about the Insulin [2, 4] of the same compound?
**A.** Its Insulin is 5.2 ± 0.7 ng/mL.

**Q.** What about the LDL cholesterol [2, 4] of the same compound?
**A.** The LDL cholesterol was 129.0 mg/dL.

**Q.** And the Triglycerides [2, 4]?
**A.** The Triglycerides was 26.3 ± 5.5 mg/dL.

**Q.** What about the Body weight [2, 4] of the same compound?
**A.** The Body weight was 43.8 ± 3.1 g.

**Q.** What about the Liver weights [2, 4] of the same compound?
**A.** The Liver weights was 2.6 ± 0.5 g.

**Q.** And the “epididymal WAT” value [2, 4]?
**A.** Its value is 1.7 ± 0.3 g.

**Q.** And the “inguinal WAT” value [2, 4]?
**A.** The value was 1.9 ± 0.2 g.

**Q.** And the Food consumption ([2]; Example 45 10 mg/kg twice daily per os, day 27, daily average)?
**A.** Its Food consumption is 2.4 ± 0.2 g/day.

**Q.** How did the IC50 [1] turn out when `Cn1c(Cl)cn2c(=O)c(-c3cnn(CC(F)(F)C(F)(F)F)c3)c(C(F)(F)F)nc12` [Example 48, 2-chloro-1-methyl-6-[1-(2,2,3,3,3-pentafluoropropyl)-1H-pyrazol-4-yl]-7-(trifluoromethyl)-1H,5H-imidazo[1,2-a]pyrimidin-5-one] was run?
**A.** Its IC50 is 0.0068 µM.

**Q.** What about the “Average % D5D Inhibition expressed as Plasma Endogenous AA/DGLA Ratio” value (Delta-5-Desaturase (D5D)) of the same compound?
**A.** The value was 68%.
